From US20230158155A1, “Cell Surface Receptor Binding Compounds and Conjugates” (priority 2020, published 2023) come the findings set out here.

Molecules are shown by their SMILES.

The subject of one data set is Jurkat cells. The data set is described as follows: Conjugate-mediated uptake of IgG2a-Alexa488 into Jurkat cells (flow cytometry). As to conditions: anti-IgG2a conjugates, 1 hour and 24 hours, FIGS. 21-22. It is filed as cell-based. The protocol:
The anti-IgG2a conjugates were bound to IgG2a-Alexa488, as follows: equal molar ratios of anti-IgG2a and IgG2a-Alexa488 were added in tissue culture media for 30 minutes at room temperature. The resulting anti-IgG2a:IgG2a antibody-Alexa488 compositions were added to Jurkat cells (100 k cells/50 ul per well, n=2), and Alexa488 fluorescence levels were measured (via Alexa488 measurement) at 1 hour and 24 hours by flow cytometry. Because Alexa488 accumulates in cells, this presents a way to measure total intracellular uptake by cells over time.

The target in data set [1] is T1, recombinant human CI-M6PR protein (Homo sapiens, UniProt P11717).
T1 construct: purchased R&D 6418-GR-050
In words: Human CI-M6PR binding assay (ELISA). Particulars: conjugates of ligand linkers. On the procedure:
Nunc black solid bottom MaxiSorp plates were allowed to incubate overnight at 4° C. coated with […] of recombinant human CI-M6PR protein (R&D, 6418-GR-050) in 50 μL PBS. The next day, coating was decanted and plates were washed 3× with PBS. Wells were blocked with 350 μL of 3% BSA-PBS for 1 hour at room temperature. […] 50 μL of diluted conjugates were added to the plate and allowed to incubate at room temperature for 2 hours. After incubation, solutions in plate were decanted and washed with 350 μL of 0.05% PBS-Tween20 three times, drying the plate each wash on a clean paper towel. 50 μL of peroxidase AffiniPure Mouse Anti-Human IgG (Jackson Immuno, 209-035-088) diluted in 3% BSA-PBS to […] was added to the plate and allowed to incubate for 1 hour at room temperature in the dark. After incubation, solutions in plate were decanted and washed with 350 μL of 0.05% PBS-Tween20 3 times, drying the plate each wash on a clean paper towel. […] 50 μL of QuantaBlu solution was added to wells and allowed to incubate for 5-10 minutes at room temperature. After incubation, plates were read on a Perkin Elmer EnVision using photometric 340 and Umbelliferone 460 filter sets for excitation and emission, respectively. Data analysis and non-linear curve-fitting was performed using GraphPad Prism.
In general terms: In an ELISA, binding on a coated surface is turned into a signal by an enzyme label.

The nature of data set [2]: Serum pharmacokinetic analysis of rIgG1 (anti-IgG2a) antibody conjugates. As to conditions: C57B6 mice, intravenous, 10 μg/mouse, 0.5-24 hours, FIGS. 20A-20C. Type of data set: in vivo. The protocol:
A pharmacokinetic analysis of the rIgG1 (anti-IgG2a) antibody conjugates described in the previous example was performed in mice. In particular, C57B6 mice were intravenously administered each rIgG1 antibody conjugate at 10 μg/mouse (5 mice per group). Blood was collected at 0.5, 1, 2, 6, and 24 hours and serum rIgG1 was analyzed using an ELISA kit (Abcam) according to the manufacturer's instructions. Samples were run across 3 different plates with unconjugated rIgG1 controls (UNLB-anti-IgG2a rIgG1) included on all 3 plates.

T1 sequence (P11717 41-2491): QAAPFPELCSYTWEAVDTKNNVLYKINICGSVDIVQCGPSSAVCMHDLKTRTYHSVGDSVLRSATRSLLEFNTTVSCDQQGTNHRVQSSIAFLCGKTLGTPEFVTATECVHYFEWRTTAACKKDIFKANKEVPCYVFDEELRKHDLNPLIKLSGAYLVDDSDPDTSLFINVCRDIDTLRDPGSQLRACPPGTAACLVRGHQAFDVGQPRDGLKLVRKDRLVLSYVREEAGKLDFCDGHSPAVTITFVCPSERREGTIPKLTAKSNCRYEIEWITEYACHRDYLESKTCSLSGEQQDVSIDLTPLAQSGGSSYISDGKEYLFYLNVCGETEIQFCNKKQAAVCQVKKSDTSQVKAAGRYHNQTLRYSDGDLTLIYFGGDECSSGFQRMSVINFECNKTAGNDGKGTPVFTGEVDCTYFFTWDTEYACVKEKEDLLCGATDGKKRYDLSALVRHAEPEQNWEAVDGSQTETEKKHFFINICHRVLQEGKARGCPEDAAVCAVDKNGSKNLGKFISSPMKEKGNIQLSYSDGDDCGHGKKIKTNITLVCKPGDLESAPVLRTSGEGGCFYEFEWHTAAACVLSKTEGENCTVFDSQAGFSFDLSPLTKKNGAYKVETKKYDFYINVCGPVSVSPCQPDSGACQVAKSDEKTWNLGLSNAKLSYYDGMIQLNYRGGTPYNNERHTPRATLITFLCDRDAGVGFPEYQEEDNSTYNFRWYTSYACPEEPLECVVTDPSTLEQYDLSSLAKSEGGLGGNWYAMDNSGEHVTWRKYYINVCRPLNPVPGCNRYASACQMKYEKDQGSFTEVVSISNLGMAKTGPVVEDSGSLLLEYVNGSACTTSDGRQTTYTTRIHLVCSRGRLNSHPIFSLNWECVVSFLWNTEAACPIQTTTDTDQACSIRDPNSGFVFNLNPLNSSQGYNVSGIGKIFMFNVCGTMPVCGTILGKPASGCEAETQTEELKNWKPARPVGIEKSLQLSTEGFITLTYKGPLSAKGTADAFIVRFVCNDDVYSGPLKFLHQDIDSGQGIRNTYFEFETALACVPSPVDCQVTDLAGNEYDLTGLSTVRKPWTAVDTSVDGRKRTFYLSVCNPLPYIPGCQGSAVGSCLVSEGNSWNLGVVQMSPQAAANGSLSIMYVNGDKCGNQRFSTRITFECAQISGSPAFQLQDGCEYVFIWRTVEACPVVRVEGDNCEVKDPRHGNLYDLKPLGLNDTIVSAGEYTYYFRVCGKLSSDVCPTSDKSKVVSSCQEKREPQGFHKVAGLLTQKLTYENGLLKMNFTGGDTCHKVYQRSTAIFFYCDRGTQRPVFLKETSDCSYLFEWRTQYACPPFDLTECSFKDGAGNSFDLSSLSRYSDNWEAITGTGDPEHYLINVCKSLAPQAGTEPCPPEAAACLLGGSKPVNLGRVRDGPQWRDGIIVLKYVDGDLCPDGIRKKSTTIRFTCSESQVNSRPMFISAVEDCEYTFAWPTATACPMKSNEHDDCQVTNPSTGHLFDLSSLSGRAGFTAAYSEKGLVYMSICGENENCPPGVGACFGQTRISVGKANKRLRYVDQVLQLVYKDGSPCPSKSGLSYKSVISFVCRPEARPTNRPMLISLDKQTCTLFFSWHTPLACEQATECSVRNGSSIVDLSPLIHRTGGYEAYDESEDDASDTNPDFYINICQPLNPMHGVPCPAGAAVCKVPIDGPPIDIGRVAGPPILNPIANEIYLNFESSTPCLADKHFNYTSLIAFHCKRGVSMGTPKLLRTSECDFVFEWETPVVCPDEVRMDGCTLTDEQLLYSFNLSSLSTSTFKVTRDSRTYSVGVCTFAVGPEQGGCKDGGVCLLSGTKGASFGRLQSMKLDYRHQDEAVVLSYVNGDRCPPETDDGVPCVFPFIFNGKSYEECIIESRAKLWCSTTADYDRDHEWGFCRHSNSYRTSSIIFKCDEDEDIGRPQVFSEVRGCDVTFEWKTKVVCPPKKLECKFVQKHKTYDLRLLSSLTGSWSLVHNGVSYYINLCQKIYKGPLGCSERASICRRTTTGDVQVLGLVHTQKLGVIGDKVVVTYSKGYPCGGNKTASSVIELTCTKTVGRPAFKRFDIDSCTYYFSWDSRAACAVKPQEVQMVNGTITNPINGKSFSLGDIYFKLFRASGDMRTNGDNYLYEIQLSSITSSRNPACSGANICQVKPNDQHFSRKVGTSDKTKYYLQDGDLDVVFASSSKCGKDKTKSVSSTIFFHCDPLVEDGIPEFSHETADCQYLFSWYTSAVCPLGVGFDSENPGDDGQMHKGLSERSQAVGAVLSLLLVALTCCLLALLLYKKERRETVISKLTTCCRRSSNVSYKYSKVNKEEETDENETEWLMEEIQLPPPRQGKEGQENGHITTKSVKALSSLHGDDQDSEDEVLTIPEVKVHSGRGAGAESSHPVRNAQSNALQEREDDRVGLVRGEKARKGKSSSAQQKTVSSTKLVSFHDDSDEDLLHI

As to `O=C(CCOCCn1cc(CCO[C@H]2O[C@H](CCP(=O)(O)O)[C@@H](O)[C@H](O)[C@@H]2O)nn1)Oc1c(F)c(F)c(F)c(F)c1F` [Compound I-11], the “uptake of IgG2a-Alexa488 into Jurkat cells” value in the data set with Jurkat cells is listed as “sufficiently robust uptake”. Besides, the “binding affinity to M6PR compared to Compound I-7” value in data set [1] is on record as “weaker binding affinity”. The “half life (serum rIgG1) compared to Compound I-7 conjugate” value in data set [2] is reported as “longer half life”.
